Measurements as given in patent US20150031668A1, “CHROMAN DERIVATIVES AS TRPM8 INHIBITORS” (AMGEN INC., priority 2013, published 2015).

target: T1, human TRPM8 (Homo sapiens, UniProt Q7Z2W7); assay: Luminescence readout assay for measuring intracellular calcium (aequorin, CHO cells expressing human TRPM8; icilin, L-menthol or cold activation); assay type: cell-based; settings: CHO cells expressing human TRPM8, icilin activation (1 μM), aequorin luminescence; read-out: hTRPM8 IC50
T1 construct: expressed in transfected cells; host or cells: Chinese hamster ovary (CHO) cells, T-REx tetracycline-inducible expression system (Invitrogen); co-transfected with pcDNA3.1 aequorin
In short: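 Activation was by 1 μM icilin, 100 μM L-menthol (test compound 2.5 min ahead) or cold buffer below 10° C (compound 1 min ahead). Calcium rise measured as aequorin luminescence in CHO cells with tetracycline-inducible human TRPM8.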

T1 sequence (Q7Z2W7 whole entry): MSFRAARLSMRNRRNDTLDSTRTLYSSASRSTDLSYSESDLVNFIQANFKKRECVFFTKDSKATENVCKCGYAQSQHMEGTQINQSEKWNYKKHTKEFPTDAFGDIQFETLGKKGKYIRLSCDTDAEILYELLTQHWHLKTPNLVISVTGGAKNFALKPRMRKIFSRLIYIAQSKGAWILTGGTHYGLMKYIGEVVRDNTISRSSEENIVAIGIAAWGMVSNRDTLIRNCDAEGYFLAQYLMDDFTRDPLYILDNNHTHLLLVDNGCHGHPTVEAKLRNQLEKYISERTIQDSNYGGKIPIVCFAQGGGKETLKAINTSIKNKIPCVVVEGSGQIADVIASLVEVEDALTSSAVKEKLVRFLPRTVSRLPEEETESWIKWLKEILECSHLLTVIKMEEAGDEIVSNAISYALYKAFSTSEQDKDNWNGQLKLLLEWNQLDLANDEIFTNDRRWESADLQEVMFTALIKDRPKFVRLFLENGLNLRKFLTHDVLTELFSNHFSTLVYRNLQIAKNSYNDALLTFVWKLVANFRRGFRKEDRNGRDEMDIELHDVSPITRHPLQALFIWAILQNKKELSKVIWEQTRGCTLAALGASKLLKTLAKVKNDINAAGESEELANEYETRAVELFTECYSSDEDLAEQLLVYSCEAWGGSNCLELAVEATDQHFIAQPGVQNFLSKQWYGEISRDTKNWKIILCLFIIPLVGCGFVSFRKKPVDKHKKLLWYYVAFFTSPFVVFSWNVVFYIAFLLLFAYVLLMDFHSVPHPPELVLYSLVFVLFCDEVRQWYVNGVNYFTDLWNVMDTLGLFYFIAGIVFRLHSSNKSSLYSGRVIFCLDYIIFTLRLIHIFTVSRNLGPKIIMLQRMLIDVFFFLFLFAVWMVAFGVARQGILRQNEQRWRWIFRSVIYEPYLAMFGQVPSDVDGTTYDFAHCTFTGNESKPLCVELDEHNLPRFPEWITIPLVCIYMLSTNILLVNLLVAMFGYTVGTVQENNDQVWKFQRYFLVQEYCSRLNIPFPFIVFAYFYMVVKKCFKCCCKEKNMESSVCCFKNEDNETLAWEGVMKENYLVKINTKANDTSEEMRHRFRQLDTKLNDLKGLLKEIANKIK

Structure (SMILES) | IC50 [nM]
COc1ncc(-c2ccc([C@@]3(NC(=O)c4ccc(F)cc4)CCOc4cccnc43)cc2)cn1 [Example 127, (S)-4-fluoro-N-(4-(4-(2-methoxypyrimidin-5-yl)phenyl)-3,4-dihydro-2H-pyrano[3,2-b]pyridin-4-yl)benzamide] | 336
O=C(N[C@]1(c2ccc(-c3ccccc3CO)cc2)CCOc2cccnc21)c1ccc(F)cc1 [Example 128, (S)-4-fluoro-N-(4-(2′-(hydroxymethyl)-[1,1′-biphenyl]-4-yl)-3,4-dihydro-2H-pyrano[3,2-b]pyridin-4-yl)benzamide] | 501
COc1ccncc1-c1ccc([C@@]2(NC(=O)c3ccc(F)cc3)CCOc3cccnc32)cc1 [Example 130, (S)-4-fluoro-N-(4-(4-(4-methoxypyridin-3-yl)phenyl)-3,4-dihydro-2H-pyrano[3,2-b]pyridin-4-yl)benzamide] | 1000
COc1ncccc1-c1ccc([C@@]2(NC(=O)c3ccc(F)cc3)CCOc3cccnc32)cc1 [Example 131, (S)-4-fluoro-N-(4-(4-(2-methoxypyridin-3-yl)phenyl)-3,4-dihydro-2H-pyrano[3,2-b]pyridin-4-yl)benzamide] | 113
Cc1ccncc1-c1ccc([C@@]2(NC(=O)c3ccc(F)cc3)CCOc3cccnc32)cc1 [Example 132, (S)-4-fluoro-N-(4-(4-(4-methylpyridin-3-yl)phenyl)-3,4-dihydro-2H-pyrano[3,2-b]pyridin-4-yl)benzamide] | 216
O=C(N[C@]1(c2ccc(-c3ccc(N4CCOCC4)cc3)cc2)CCOc2cccnc21)c1ccc(F)cc1 [Example 133, (S)-4-fluoro-N-(4-(4′-morpholino-[1,1′-biphenyl]-4-yl)-3,4-dihydro-2H-pyrano[3,2-b]pyridin-4-yl)benzamide] | 156
COc1cccc(-c2ccc([C@@]3(NC(=O)c4ccc(F)cc4)CCOc4cccnc43)cc2)c1O [Example 135, (S)-4-fluoro-N-(4-(2′-hydroxy-3′-methoxy-[1,1′-biphenyl]-4-yl)-3,4-dihydro-2H-pyrano[3,2-b]pyridin-4-yl)benzamide] | 113
COc1ccc(-c2ccc([C@@]3(NC(=O)c4ccc(F)cc4)CCOc4cccnc43)cc2)c(CO)c1 [Example 136, (S)-4-fluoro-N-(4-(2′-(hydroxymethyl)-4′-methoxy-[1,1′-biphenyl]-4-yl)-3,4-dihydro-2H-pyrano[3,2-b]pyridin-4-yl)benzamide] | 784
CN(C)C(=O)c1ccc(-c2ccc([C@@]3(NC(=O)c4ccc(F)cc4)CCOc4cccnc43)cc2)cc1 [Example 137, (S)-4′-(4-(4-fluorobcnzamido)-3,4-dihydro-2H-pyrano[3,2-b]pyridin-4-yl)-N,N-dimethyl-[1,1′-biphenyl]-4-carboxamide] | 1520
CNC(=O)c1ccc(-c2ccc([C@@]3(NC(=O)c4ccc(F)cc4)CCOc4cccnc43)cc2)cc1 [Example 138, (S)-4′-(4-(4-fluorobenzamido)-3,4-dihydro-2H-pyrano[3,2-b]pyridin-4-yl)-N-methyl-[1,1′-biphenyl]-4-carboxamide] | 3160
O=C(N[C@]1(c2ccc(-c3cnc(Cl)nc3)cc2)CCOc2cccnc21)c1ccc(F)cc1 [Example 139, (S)-N-(4-(4-(2-chloropyrirnidin-5-yl)phenyl)-3,4-dihydro-2H-pyrano[3,2-b]pyridin-4-yl)-4-fluorobenzamide] | 122
O=C(N[C@]1(c2ccc(-c3cc(F)ccc3CO)cc2)CCOc2cccnc21)c1ccc(F)cc1 [Example 140, (S)-4-fluoro-N-(4-(5′-fluoro-2′-(hydroxymethyl)-[1,1′-biphenyl]-4-yl)-3,4-dihydro-2H-pyrano[3,2-b]pyridin-4-yl)benzamide] | 340
N#Cc1cncc(-c2ccc([C@@]3(NC(=O)c4ccc(F)cc4)CCOc4cccnc43)cc2)c1 [Example 141, (S)-N-(4-(4-(5-cyanopyridin-3-yl)phenyl)-3,4-dihydro-2H-pyrano[3,2-b]pyridin-4-yl)-4-fluorobenzamide] | 260
CS(=O)(=O)c1ccccc1-c1ccc([C@@]2(NC(=O)c3ccc(F)cc3)CCOc3cccnc32)cc1 [Example 144, (S)-4-fluoro-N-(4-(2′-(methylsulfonyl)-[1,1′-biphenyl]-4-yl)-3,4-dihydro-2H-pyrano[3,2-b]pyridin-4-yl)benzamide] | 1920
COc1ncc(-c2ccc([C@@]3(NC(=O)c4ccc(F)cc4)CCOc4cccnc43)cc2)c(OC)n1 [Example 149, (S)-N-(4-(4-(2,4-dimethoxypyrimidin-5-yl)phenyl)-3,4-dihydro-2H-pyrano[3,2-b]pyridin-4-yl)-4-fluorobenzamide] | 299
O=C(N[C@]1(c2ccc(-c3ccc(CO)cc3)cc2)CCOc2cccnc21)c1ccc(F)cc1 [Example 151, (S)-4-fluoro-N-(4-(4′-(hydroxymethyl)-[1,1′-biphenyl]-4-yl)-3,4-dihydro-2H-pyrano[3,2-b]pyridin-4-yl)benzamide] | 1640
CC(C)(C)[S@@+]([O-])N[C@]1(c2ccc(OC(F)(F)F)c(F)c2)CCOc2cccnc21 [Example 152, (R)—N—((S)-4-(3-fluoro-4-(trifluoromethoxy)phenyl)-3,4-dihydro-2H-pyrano[3,2-b]pyridin-4-yl)-2-methylpropane-2-sulfinamide] | 2400
N#Cc1ccc(-c2ccc([C@@]3(NC(=O)c4ccccc4)CCOc4cccnc43)cc2)cc1 [Example 154, (S)—N-(4-(4′-cyano-[1,1′-biphenyl]-4-yl)-3,4-dihydro-2H-pyrano[3,2-b]pyridin-4-yl)benzamide] | 91
CC(=O)c1ccc(C(=O)N[C@]2(c3ccc(OC(F)(F)F)c(F)c3)CCOc3cccnc32)cc1 [Example 156, (S)-4-acetyl-N-(4-(3-fluoro-4-(trifluoromethoxy)phenyl)-3,4-dihydro-2H-pyrano[3,2-b]pyridin-4-yl)benzamide] | 8
O=C(N[C@]1(c2ccc(OC(F)(F)F)c(F)c2)CCOc2cccnc21)c1ccc(C(=O)C(F)(F)F)cc1 [Example 160, (S)—N-(4-(3-fluoro-4-(trifluoromethoxy)phenyl)-3,4-dihydro-2H-pyrano[3,2-b]pyridin-4-yl)-4-(2,2,2-trifluoroacetyl)benzamide 2,2,2-trifluoroacetate] | 39
O=C(O)c1ccc(C(=O)N[C@@]2(c3ccc(OC(F)(F)F)c(F)c3)COc3cccnc32)nc1 [Example 161, (R)-6-((3-(3-Fluoro-4-(trifluoromethoxy)phenyl)-2,3-dihydrofuro[3,2-b]pyridin-3-yl)carbamoyl)nicotinic acid] | 42
CCOC(=O)c1ncc(C(=O)N[C@]2(c3ccc(OC(F)(F)F)c(F)c3)CCOc3cccnc32)[nH]1 [Example 162] | 92

More lines, now with the values ahead:

IC50 [nM] | Structure (SMILES)
908 | Nc1cccc(-c2ccc([C@@]3(NC(=O)c4ccc(F)cc4)CCOc4cccnc43)cc2)c1 [Example 126, (S)-N-(4-(3′-amino-[1,1′-biphenyl]-4-yl)-3,4-dihydro-2H-pyrano[3,2-b]pyridin-4-yl)-4-fluorobenzamide]
2600 | CN(C)C(=O)c1cccc(-c2ccc([C@@]3(NC(=O)c4ccc(F)cc4)CCOc4cccnc43)cc2)c1 [Example 129, (S)-4′-(4-(4-fluorobenzamido)-3,4-dihydro-2H-pyrano[3,2-b]pyridin-4-yl)-N,N-dimethyl-[1,1′-biphenyl]-3-carboxamide]
320 | O=C(N[C@]1(c2ccc(-c3cccc(F)c3O)cc2)CCOc2cccnc21)c1ccc(F)cc1 [Example 134, (S)-4-fluoro-N-(4-(3′-fluoro-2′-hydroxy-[1,1′-biphenyl]-4-yl)-3,4-dihydro-2H-pyrano[3,2-b]pyridin-4-yl)benzamide]
336 | O=C(N[C@]1(c2ccc(-c3cccc(N4CCOCC4)c3)cc2)CCOc2cccnc21)c1ccc(F)cc1 [Example 142, (S)-4-fluoro-N-(4-(3′-morpholino-[1,1′-biphenyl]-4-yl)-3,4-dihydro-2H-pyrano[3,2-b]pyridin-4-yl)benzamide]
176 | Nc1ccccc1-c1ccc([C@@]2(NC(=O)c3ccc(F)cc3)CCOc3cccnc32)cc1 [Example 143, (S)-N-(4-(2′-amino-[1,1′-biphenyl]-4-yl)-3,4-dihydro-2H-pyrano[3,2-b]pyridin-4-yl)-4-fluorobenzamide]
70 | O=C(N[C@]1(c2ccc(-c3ccoc3)cc2)CCOc2cccnc21)c1ccc(F)cc1 [Example 145, (S)-4-fluoro-N-(4-(4-(furan-3-yl)phenyl)-3,4-dihydro-2H-pyrano[3,2-b]pyridin-4-yl)benzamide]
88 | COc1cc(-c2ccc([C@@]3(NC(=O)c4ccc(F)cc4)CCOc4cccnc43)cc2)ccn1 [Example 146, (S)-4-fluoro-N-(4-(4-(2-methoxypyridin-4-yl)phenyl)-3,4-dihydro-2H-pyrano[3,2-b]pyridin-4-yl)benzamide]
1530 | Nc1ccc(-c2ccc([C@@]3(NC(=O)c4ccc(F)cc4)CCOc4cccnc43)cc2)cc1 [Example 147, (S)-N-(4-(4′-amino-[1,1′-biphenyl]-4-yl)-3,4-dihydro-2H-pyrano[3,2-b]pyridin-4-yl)-4-fluorobenzamide]
770 | Cc1ccc(-c2ccc([C@@]3(NC(=O)c4ccc(F)cc4)CCOc4cccnc43)cc2)cc1N [Example 148, (S)-N-(4-(3′-amino-4′-methyl-[1,1′-biphenyl]-4-yl)-3,4-dihydro-2H-pyrano[3,2-b]pyridin-4-yl)-4-fluorobenzamide]
1190 | Cc1nnc(-c2cccc(-c3ccc([C@@]4(NC(=O)c5ccc(F)cc5)CCOc5cccnc54)cc3)c2)o1 [Example 150, (S)-4-fluoro-N-(4-(3′-(5-methyl-1,3,4-oxadiazol-2-yl)-[1,1′-biphenyl]-4-yl)-3,4-dihydro-2H-pyrano[3,2-b]pyridin-4-yl)benzamide]
112 | N#Cc1ccc(-c2ccc([C@@]3(NC(=O)c4ccc(F)cc4)CCOc4cccnc43)cc2)cc1 [Example 153, (S)—N-(4-(4′-cyano-[1,1′-biphenyl]-4-yl)-3,4-dihydro-2H-pyrano[3,2-b]pyridin-4-yl)-4-fluorobenzamide]
